The text below walks through data of US7259185B2 (priority 2005, dated 2007).

The conditions of data set [1]: in vivo; cited from earlier work.
For data set [2] the following is noted: pH buffer of pH between 8 and 9, room temperature. From the text:
In a more preferred embodiment, pH of about 8 to 9, is provided. For example, a buffer close to a pH of about 8.3 can be used.

The conditions of data set [3]: pH 9 carbonate buffer, after approximately 1 week at 50° C.
For data set [4] the following is noted: 2 mg/mL in pH 7 phosphate buffer (100 mM), RT.
The format of data set [5] is physicochemical. To be noted: 6 mg dose, no pepsin, after 24 hours. The method, then: A 250 mL volumetric flask was used to simulate the capacity of stomach gastric volume, and a pH 1.5 HCl buffer (0.8% NaCl, 0.04% CaCl2) was used for the simulated gastric fluid (SGF).
For data set [6] the following is noted: buffer at pH 7, glycerin increased to 35% by volume.
For data set [7] the following is noted: for Color change: 50° C.

Each structure is given as a SMILES string. Several values for one entry are separate records, joined by “and”; a condition that tells them apart may be missing. Identical values can stand only once. Entries after “also recorded” stand apart in the source; their conditions may differ. Like-named read-outs stand apart in the source and are kept apart here.

With `CC(=O)CC(c1ccccc1)c1c(O)c2ccccc2oc1=O` (racemic) [warfarin], the “apparent Vd” value in data set [1] was 0.13 L/kg.

With `CC(=O)CC(c1ccccc1)c1c([O-])c2ccccc2oc1=O.[Na+]` (stereo not shown) [warfarin sodium, 4-hydroxy-3-(3-oxo-1-phenylbutyl)-2H-1-benzopyran-2one sodium salt], the precipitation result in data set [2] is given as “free of precipitation for at least one month”. Further, the Color change entry is “slight yellowing” in data set [3]; “No color change” in data set [7] (1:1 mixture with ethanol, pH 8 buffer); “No color change” in data set [7] (1:1 mixture with glycerin, pH 8 buffer); “Light yellow” in data set [7] (Phosphate buffer pH 8 alone); “slight yellow color change” in data set [7] (pH 8 buffer with Liquid sugar (50% v/v), sodium salt); “slight yellow color change; also recorded: Light yellow” in data set [7] (pH 8 buffer with Mannitol (5% w/v), sodium salt). Moreover, the Color change entry is “slight yellow color change; also recorded: Light yellow” in data set [7] (pH 8 buffer with Saccharin (0.5% w/v), sodium salt) and “slight yellow color change; also recorded: Light yellow” in data set [7] (pH 8 buffer with Sorbitol (50% v/v), sodium salt). Also, the Warfarin concentration in data set [4] (time 0.017 hr) worked out at 1.846 mg/mL; in data set [4] (time 0.083 hr), 1.819 mg/mL; in data set [4] (time 0.167 hr), 1.796 mg/mL; in data set [4] (time 0.333 hr) it was 1.847 mg/mL; in data set [4] (time 0.5 hr) it was 1.844 mg/mL; in data set [4] (time 1 hr), 1.8765 mg/mL. The Warfarin concentration in data set [4] (time 3 hr) stood at 1.858 mg/mL; in data set [4] (time 5 hr) it was 1.804 mg/mL; in data set [4] (time 10 hr), 1.822 mg/mL; in data set [4] (time 13.5 hr) it was 2.0099 mg/mL; in data set [4] (time 17.25 hr), 1.97 mg/mL; in data set [4] (time 48 hr), 1.113 mg/mL. In addition, the Warfarin concentration in data set [4] (time 192 hr, sodium salt) was 0.357 mg/mL and 0.362 mg/mL. In addition, in data set [5], the “precipitation of warfarin sodium in SGF” value is “precipitate out of solution”. The precipitation of warfarin entry in data set [6] is “prevents precipitation”. Further, the “% degradation of warfarin sodium” value in data set [7] (Phosphate buffer pH 8 alone, 1 month at 50° C.) is recorded as 1.4%; in data set [7] (pH 8 buffer with Liquid sugar (50% v/v), after 312 hr at 50° C.), 2.4 (after 312 hr) %; in data set [7] (pH 8 buffer with Mannitol (5% w/v), after 384 hr at 50° C.), 1.9 (after 384 hr) %; in data set [7] (pH 8 buffer with Saccharin (0.5% w/v), 1 month at 50° C.), 3.3%; in data set [7] (pH 8 buffer with Sorbitol (50% v/v), 1 month at 50° C.) it was 2.9%; in data set [7] (pH 8 buffer with TWEEN 80 (0.5% v/v), 1 month at 50° C.), 5.1%.
